This data set has as its system CCRIS mutagenicity, Ames/micronucleus/aberration tests. The experiment in a line: CCRIS mutagenicity studies.
Where [1] appears, read: Test System: AMES SALMONELLA TYPHIMURIUM, Strain/Indicator: TA98, Metabolic Activation: NONE, Method: STANDARD PLATE.
The mark [2] stands for this setting: Test System: AMES SALMONELLA TYPHIMURIUM, Strain/Indicator: TA100, Metabolic Activation: NONE, Method: STANDARD PLATE.
Where [3] appears, read: Test System: AMES SALMONELLA TYPHIMURIUM, Strain/Indicator: TA98, Metabolic Activation: NONE, Method: PREINCUBATION
Where [4] appears, read: Test System: AMES SALMONELLA TYPHIMURIUM, Strain/Indicator: TA100, Metabolic Activation: NONE, Method: PREINCUBATION
The mark [5] stands for this setting: Test System: AMES SALMONELLA TYPHIMURIUM, Strain/Indicator: TA97, Metabolic Activation: NONE, Method: PREINCUBATION

The source made the active and inactive calls. How the calls were made is not given here.

Consider `CCCN(C(=O)CCCl)c1snc2ccccc12`, for which the mutagenic call runs as follows: under setting [1], “inactive; negative”; (Test System: AMES SALMONELLA TYPHIMURIUM, Strain/Indicator: TA98, Metabolic Activation: S-9, Method: STANDARD PLATE) “inactive; negative”; under setting [2], “inactive; negative”; (Test System: AMES SALMONELLA TYPHIMURIUM, Strain/Indicator: TA100, Metabolic Activation: S-9, Method: STANDARD PLATE) “inactive; negative”; (Test System: AMES SALMONELLA TYPHIMURIUM, Strain/Indicator: TA1535, Metabolic Activation: NONE, Method: STANDARD PLATE) “active; positive”; (Test System: AMES SALMONELLA TYPHIMURIUM, Strain/Indicator: TA1535, Metabolic Activation: S-9, Method: STANDARD PLATE) “active; positive”. For the same compound, the mutagenic call reads like this: (Test System: AMES SALMONELLA TYPHIMURIUM, Strain/Indicator: TA1537, Metabolic Activation: NONE, Method: STANDARD PLATE) “inactive; negative”; (Test System: AMES SALMONELLA TYPHIMURIUM, Strain/Indicator: TA1537, Metabolic Activation: S-9, Method: STANDARD PLATE) “inactive; negative”.

With `N[C@@H](CCC(=O)NNc1ccccc1)C(=O)O`, the mutagenic call by setting is: under setting [2], “inactive; negative”; (Test System: AMES SALMONELLA TYPHIMURIUM, Strain/Indicator: TA100, Metabolic Activation: RAT KIDNEY, MICROSOMES, Method: STANDARD PLATE) “active; positive”; (Test System: AMES SALMONELLA TYPHIMURIUM, Strain/Indicator: TA100, Metabolic Activation: RAT LIVER, MICROSOMES, Method: STANDARD PLATE) “inactive; negative”.

With `Clc1nncc2cccnc12`, the mutagenic call reads like this: under setting [3], “inactive; negative”; (Test System: AMES SALMONELLA TYPHIMURIUM, Strain/Indicator: TA98, Metabolic Activation: RAT, LIVER, S-9, PCB, Method: PREINCUBATION) “active; positive”; under setting [4], “inactive; negative”; (Test System: AMES SALMONELLA TYPHIMURIUM, Strain/Indicator: TA100, Metabolic Activation: RAT, LIVER, S-9, PCB, Method: PREINCUBATION) “active; positive”.

Take `Cc1ccc2cc3c(cc2c1)-c1cccc2cccc-3c12`: under “Test System: AMES SALMONELLA TYPHIMURIUM, Strain/Indicator: TA100, Metabolic Activation: RAT, LIVER, S-9, AROCLOR 1254”, the mutagenic call is “active; positive”.

With `CC1(C)CC(C(=O)NC(CO)C(O)CO)C(C)(C)N1O` (centres undefined), the mutagenic call by setting is: (Test System: CHO, Strain/Indicator: CHO/6-THIOGUANINE, Metabolic Activation: NONE, Method: STANDARD PLATE) “inactive; negative”; (Test System: CHO, Strain/Indicator: CHO/6-THIOGUANINE, Metabolic Activation: RAT, LIVER, S-9, AROCLOR 1254, Method: STANDARD PLATE) “inactive; negative”; (Test System: CHO, Strain/Indicator: CHO/OUABAIN, Metabolic Activation: NONE, Method: STANDARD PLATE) “inactive; negative”; (Test System: CHO, Strain/Indicator: CHO/OUABAIN, Metabolic Activation: RAT, LIVER, S-9, AROCLOR 1254, Method: STANDARD PLATE) “inactive; negative”.

Turning to `[O]c1nccc(=O)[nH]1`, the mutagenic call under setting [2] was “active; positive”.

Turning to `CCCCN(CC(O)c1ccc([O-])c([N+]#N)c1)N=O` (centres undefined), the mutagenic call under setting [3] is “active; positive”; the mutagenic call (Test System: AMES SALMONELLA TYPHIMURIUM, Strain/Indicator: TA98, Method: PREINCUBATION) is “active; positive”; the mutagenic call under setting [4] is “active; positive”; the mutagenic call (Test System: AMES SALMONELLA TYPHIMURIUM, Strain/Indicator: TA100, Method: PREINCUBATION) was “active; positive”.

In the case of `Cn1c(C(F)(F)F)cc2c(N3CCCC3)nc(N3CCCC3)nc21`, the mutagenic call (Test System: UDS RAT HEPATOCYTES, Strain/Indicator: THY-INCORP, Metabolic Activation: NONE, Method: AUTORADIOGRAPHY) is “inactive; negative”.

Regarding `CC(=O)CC(O)(CC(=O)O)C(=O)O` (centres undefined), the mutagenic call under setting [5] is “inactive; negative”; the mutagenic call (Test System: AMES SALMONELLA TYPHIMURIUM, Strain/Indicator: TA97, Metabolic Activation: S-9, Method: PREINCUBATION) is “inactive; negative”; the mutagenic call (Test System: AMES SALMONELLA TYPHIMURIUM, Strain/Indicator: TA102, Metabolic Activation: NONE, Method: PREINCUBATION) is “inactive; negative”; the mutagenic call (Test System: AMES SALMONELLA TYPHIMURIUM, Strain/Indicator: TA102, Metabolic Activation: S-9, Method: PREINCUBATION) was “inactive; negative”.

Take `CC(=O)OC[C@]12C[C@H](OC(=O)CC(C)C)C(C)=C[C@H]1O[C@@H]1[C@H](O)[C@@H](OC(C)=O)[C@@]2(C)[C@]12CO2`: the mutagenic call runs as follows: (Test System: AMES SALMONELLA TYPHIMURIUM, Strain/Indicator: TA98, Metabolic Activation: RAT LIVER S-9, DELOR 103, Method: STANDARD PLATE) “inactive; negative”; (Test System: AMES SALMONELLA TYPHIMURIUM, Strain/Indicator: TA98, Metabolic Activation: RAT, LIVER, MICROSOMES, PHENOBARBITAL, Method: STANDARD PLATE) “inactive; negative”; under setting [4], “inactive; negative”; (Test System: AMES SALMONELLA TYPHIMURIUM, Strain/Indicator: TA100, Metabolic Activation: RAT LIVER S-9, DELOR 103, Method: STANDARD PLATE) “inactive; negative”; (Test System: AMES SALMONELLA TYPHIMURIUM, Strain/Indicator: TA100, Metabolic Activation: RAT, LIVER, MICROSOMES, PHENOBARBITAL, Method: STANDARD PLATE) “inactive; negative”; (Test System: AMES SALMONELLA TYPHIMURIUM, Strain/Indicator: TA100, Metabolic Activation: RAT, LIVER, S-9, PHENOBARBITAL, Method: PREINCUBATION) “inactive; negative”. For the same compound, the mutagenic call is, setting by setting: (Test System: CHINESE HAMSTER, Strain/Indicator: V-79/6-THIOGUANINE, Metabolic Activation: NONE, Method: STANDARD PLATE) “active; positive”; (Test System: CHINESE HAMSTER, Strain/Indicator: V-79/6-THIOGUANINE, Metabolic Activation: S-9, Method: STANDARD PLATE) “active; positive”.

For `CC(=O)OC1Cc2ccc3ccc4cccc5cc1c2c3c45` (centres undefined), the mutagenic call was “active; positive” under setting [1] and “active; positive” under setting [2].

For `ClC1C(Br)C(Br)C(Br)C(Br)C1Br` (centres undefined), the mutagenic call was “inactive; negative” (Test System: AMES SALMONELLA TYPHIMURIUM, Strain/Indicator: TA97, Metabolic Activation: HAMSTER, LIVER, S-9, AROCLOR 1254 (5, 10 OR 30%), Method: PREINCUBATION); “inactive; negative” under setting [5]; “inactive; negative” (Test System: AMES SALMONELLA TYPHIMURIUM, Strain/Indicator: TA97, Metabolic Activation: RAT, LIVER, S-9, AROCLOR 1254 (10 OR 30%), Method: PREINCUBATION); “inactive; negative” (Test System: AMES SALMONELLA TYPHIMURIUM, Strain/Indicator: TA98, Metabolic Activation: HAMSTER, LIVER, S-9, AROCLOR 1254 (10 OR 30%), Method: PREINCUBATION); “inactive; negative” under setting [3]; “inactive; negative” (Test System: AMES SALMONELLA TYPHIMURIUM, Strain/Indicator: TA98, Metabolic Activation: RAT, LIVER, S-9, AROCLOR 1254 (10 OR 30%), Method: PREINCUBATION). Moreover, the mutagenic call was “inactive; negative” (Test System: AMES SALMONELLA TYPHIMURIUM, Strain/Indicator: TA100, Metabolic Activation: HAMSTER, LIVER, S-9, AROCLOR 1254 (10%), Method: PREINCUBATION); “inactive; negative” (Test System: AMES SALMONELLA TYPHIMURIUM, Strain/Indicator: TA100, Metabolic Activation: HAMSTER, LIVER, S-9, AROCLOR 1254 (30%), Method: PREINCUBATION); “inactive; negative” under setting [4]; “inactive; negative” (Test System: AMES SALMONELLA TYPHIMURIUM, Strain/Indicator: TA100, Metabolic Activation: RAT, LIVER, S-9, AROCLOR 1254 (10 OR 30%), Method: PREINCUBATION); “inactive; negative” (Test System: AMES SALMONELLA TYPHIMURIUM, Strain/Indicator: TA1535, Metabolic Activation: HAMSTER, LIVER, S-9, AROCLOR 1254 (5 OR 10%), Method: PREINCUBATION); “inactive; negative” (Test System: AMES SALMONELLA TYPHIMURIUM, Strain/Indicator: TA1535, Metabolic Activation: HAMSTER, LIVER, S-9, AROCLOR 1254 (30%), Method: PREINCUBATION). Besides, the mutagenic call is, setting by setting: (Test System: AMES SALMONELLA TYPHIMURIUM, Strain/Indicator: TA1535, Metabolic Activation: NONE, Method: PREINCUBATION) “inactive; negative”; (Test System: AMES SALMONELLA TYPHIMURIUM, Strain/Indicator: TA1535, Metabolic Activation: RAT, LIVER, S-9, AROCLOR 1254 (10 OR 30%), Method: PREINCUBATION) “inactive; negative”.

Values taken from PubChem BioAssay AID1259407 (Chemical Carcinogenesis Research Information System (CCRIS), 2018).
